Reference: patent US10640545B2 (THE GOVERNORS OF THE UNIVERSITY OF ALBERTA, priority 2017, dated 2020)
Values joined by “and” are separate entries in the source; they are usually repeats but may differ in a detail not shown here. Identical values can stand only once. Values belong to the molecule of their own block, whether it stands above or below them. Where a SMILES comes first, the peptide text is derived from it. [ ]: non-standard residue; d: D form. The star is where a group is joined. Phe(4-Br) = N[C@@H](Cc1ccc(Br)cc1)C(=O)O; Fmoc = O=C(OCC1c2ccccc2-c2ccccc21)*; PEG6 = NCCOCCOCCOCCOCCOCCOCCC(=O)O; NMeL = CN[C@@H](CC(C)C)C(=O)O; Nle = CCCC[C@H](N)C(=O)O; Aib = CC(C)(N)C(=O)O

What was measured:
KLKB1 [1] = target: T1, KLKB1 (Homo sapiens, UniProt P03952); assay: In vitro KLKB1 stability (half-life); type: in vitro ADME; parameters: purchased Novoprotein; conditions: human; rhKLKB1, 37° C.; read-out: t1/2 (rhKLKB1, h) (converted)
T1 sequence (P03952 20-638): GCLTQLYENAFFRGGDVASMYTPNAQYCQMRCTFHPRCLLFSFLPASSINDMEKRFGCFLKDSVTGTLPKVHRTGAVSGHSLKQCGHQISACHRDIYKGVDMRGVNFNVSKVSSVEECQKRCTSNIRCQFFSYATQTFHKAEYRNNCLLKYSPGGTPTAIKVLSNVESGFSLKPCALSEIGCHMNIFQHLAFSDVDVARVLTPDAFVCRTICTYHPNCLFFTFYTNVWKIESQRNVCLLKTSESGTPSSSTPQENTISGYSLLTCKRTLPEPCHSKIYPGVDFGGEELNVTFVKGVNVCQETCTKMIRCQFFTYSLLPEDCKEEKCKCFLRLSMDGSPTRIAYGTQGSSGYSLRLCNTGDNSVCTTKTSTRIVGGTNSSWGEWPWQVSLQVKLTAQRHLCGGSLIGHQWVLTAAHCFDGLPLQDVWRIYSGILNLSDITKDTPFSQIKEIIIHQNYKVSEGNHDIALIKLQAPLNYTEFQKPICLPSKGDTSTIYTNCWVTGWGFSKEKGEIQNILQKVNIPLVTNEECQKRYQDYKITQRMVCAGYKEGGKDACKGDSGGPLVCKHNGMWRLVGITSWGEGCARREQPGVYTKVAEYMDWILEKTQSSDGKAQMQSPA

[2] = target: Human plasma kallikrein KLKB1 (Homo sapiens, UniProt P03952); assay: Plasma kallikrein KLKB1 qualitative cleavage assay (MALDI-TOF); conditions: KLKB1, 37° C., first degradation products by MALDI-TOF
Human plasma kallikrein KLKB1, sequence (P03952 20-638): as above
Experimental: Native apelin-17 (2) and apelin peptides 5, 56, 57, 58 and 59 were dissolved in Milli-Q water (1 mM). Human plasma kallikrein KLKB1 were each reconstituted in Tris buffer (100 mM TrisHCl, 10 mM CaCl2), 150 mM NaCl) and diluted with Tris buffer (50 mM TrisHCl, 250 mM NaCl) to give a KLKB1 concentration of […]. The KLKB1 enzyme was then preincubated at 37° C. for 10 minutes prior to the addition of 5 μL of apelin peptide (1 mM). Aliquots (1 μL) were taken at 1, 2, 4, 6, 12, 24, 36, and 48 hours and analyzed with MALDI-TOF mass spectrometry to qualitatively determine the time point at which degradation products could be observed (Table 4).

[3] = target: Recombinant Human Neprilysin (Homo sapiens, UniProt P08473); assay: Neprilysin qualitative cleavage assay (MALDI-TOF); conditions: rhNEP 2 ng/μL, 37° C., first degradation products by MALDI-TOF
Recombinant Human Neprilysin, sequence (P08473 whole entry): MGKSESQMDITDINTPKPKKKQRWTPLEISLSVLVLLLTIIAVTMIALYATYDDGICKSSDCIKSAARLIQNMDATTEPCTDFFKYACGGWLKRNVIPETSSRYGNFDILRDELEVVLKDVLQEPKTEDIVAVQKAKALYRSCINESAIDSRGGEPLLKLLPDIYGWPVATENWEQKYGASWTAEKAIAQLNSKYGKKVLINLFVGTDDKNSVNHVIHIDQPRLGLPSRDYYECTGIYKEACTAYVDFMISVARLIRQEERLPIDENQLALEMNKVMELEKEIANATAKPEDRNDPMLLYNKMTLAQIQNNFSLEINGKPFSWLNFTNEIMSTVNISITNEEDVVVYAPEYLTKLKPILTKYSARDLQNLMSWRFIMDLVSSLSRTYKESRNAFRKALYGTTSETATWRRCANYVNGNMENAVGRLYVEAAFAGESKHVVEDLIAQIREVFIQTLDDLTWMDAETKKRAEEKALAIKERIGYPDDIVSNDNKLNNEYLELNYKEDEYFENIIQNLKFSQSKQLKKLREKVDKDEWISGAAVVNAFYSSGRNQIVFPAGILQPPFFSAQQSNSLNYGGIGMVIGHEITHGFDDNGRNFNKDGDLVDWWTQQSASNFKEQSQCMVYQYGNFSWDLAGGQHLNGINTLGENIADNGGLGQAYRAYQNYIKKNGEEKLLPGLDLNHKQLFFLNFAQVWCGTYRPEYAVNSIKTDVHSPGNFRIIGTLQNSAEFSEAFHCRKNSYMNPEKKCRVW
Experimental: Native apelin-17 (2) and apelin peptides 5, 54, 56, 57, 58 and 59 were dissolved in Milli-Q water (1 mM). Recombinant Human Neprilysin (rhNEP, Sino Biological) was reconstituted in Tris buffer (100 mM Tris, 100 mM NaCl, 10 mM ZnCl2, pH 7.5). To initiate the assays, rhNEP was diluted in Tris buffer to a 2 ng/μL final concentration, and pre-incubated at 37° C. for 10 minutes prior to the addition of 5 μL of apelin peptide (1 mM). Aliquots (1 μL) were taken at 1, 2, 4, 6, 12, 24, 36, and 48 hours and analyzed with MALDI-TOF mass spectrometry to qualitatively determine the time point at which degradation products could be observed.

neprilysin (NEP) = neprilysin (NEP) (Homo sapiens, UniProt P08473); assay: Neprilysin degradation assay (LC-MS, quantitative); conditions: human, pH 7.5
neprilysin (NEP), sequence (P08473 whole entry, the tested form may be a part, canonical isoform): as the sequence (P08473 whole entry) above
Experimental: This experiment compared the in vitro NEP stability of the Arg/Leu peptides of the embodiments to native apelin isoforms and their A2 substituted counterparts. Peptides were incubated with recombinant human NEP (rhNEP, Sino Biological) at 37° C. for up to 72 h, and the extent of degradation was analyzed via LC-MS because of the overlapping elution patterns of peptide fragments. […] (McKinnie, S. M. K., et al. ChemBioChem: 17, 1495-1498 (2016)). […] (Dion, N., et al., Biochem. J.: 311, 623-627 (1995); Bateman Jr., R. C., et al., J. Biol. Chem.: 264, 6151-6157 (1989); McMurray, J. J. et al., J. Med.: 371, 993-1004 (2014)).
Apelin peptides were dissolved in Milli-Q water (1 mM). Recombinant human neprilysin (rhNEP, Sino Biological) was reconstituted in Tris buffer (100 mM Tris, 100 mM NaCl, 10 μM ZnCl2, pH 7.5). To initiate the assay, rhNEP was diluted in Tris buffer (3.1 nM final concentration), and preincubated at 37° C. for 10 minutes prior to the addition of 5 μL of apelin peptide (1 mM) and 1.5 μL internal standard dansyl-Tyr-Val-Gly-OH (1 mM). Aliquots (10 μL) were removed at 0, 1, 4, 24, and 72 h, quenched with 0.1 M EDTA (10 μL), diluted to 100 μL with Milli-Q water and analyzed by LC-MS. Assays were performed in triplicate (n=3) for each time point. Integrated peak areas of the parent apelin peptide and internal standard derived from LC-MS analyses, were extracted using Mass Hunter software (version B.04.00) and compared in positive extracted ion count modus (+EIC, extracted-ion chromatogram). […] (apelin:dansyl-YVG), to the same ratio at the different assay time points. The decrease in apelin:dansyl-YVG ratio was converted to a percentage of cleaved peptide over time.
The extent of degradation was analyzed via LC-MS because of the overlapping elution patterns of peptide fragments (NEP).
Native apelin-17 (2) and apelin peptides 5, 54, 56, 57, 58 and 59 were dissolved in Milli-Q water (1 mM). Recombinant human neprilysin (rhNEP, Sino Biological) was reconstituted in Tris buffer (100 mM Tris, 100 mM NaCl, 10 μM ZnCl2, pH 7.5). To initiate the assay, rhNEP was diluted in Tris buffer (3.1 nM final concentration) and preincubated at 37° C. for 10 min prior to the addition of 5 μL of apelin peptide (1 mM) and 1.5 μL of internal standard dansyl-Tyr-Val-Gly-OH (1 mM). Aliquots (10 μL) were removed at 0, 1, 4, 24, and 72 h, quenched with 0.1 M EDTA (10 μL), diluted to 100 μL with Milli-Q water, and analyzed by LC-MS. Assays were performed in triplicate (n=3) for each time point. Integrated peak areas of the parent apelin peptide and internal standard derived from LC-MS analyses were extracted using Mass Hunter software (version B.04.00) and compared in positive extracted ion count modus (+EIC). The extent of proteolysis was determined by comparing the initial (0 h) ratio of the integrated extracted ions of the parent apelin peptide to the internal dansyl-YVG standard (apelin/dansyl-YVG) to the same ratio at the different assay time points. The decrease in apelin/dansyl-YVG ratio was converted to a percentage of cleaved peptide over time.

[4] = tested on: recombinant human neprilysin (rhNEP, Sino Biological); assay: rhNEP diluted in Tris buffer (100 mM Tris, 100 mM NaCl, 10 μM ZnCl2, pH 7.5), 3.1 nM final concentration; conditions: 37° C., up to 72 h
neprilysin (rhNEP) = assay: recombinant human NEP (rhNEP, Sino Biological) in Tris buffer (100 mM Tris, 100 mM NaCl, 10 μM ZnCl2, pH 7.5); conditions: 37° C, up to 72 h
[5] = human blood plasma (20 μL of plasma); conditions: 37° C., up to 60 min
[6] = tested on: KLKB1 (rhKLKB1, Novoprotein); assay: Human plasma kallikrein KLKB1 in Tris buffer, KLKB1 concentration of 2 ng/pL; conditions: 37° C., up to 48 hours
KLKB1 [7] = target: T1, KLKB1; conditions: enzyme KLKB1, data from Gozzo et al. 2006; cited from earlier work

- cleaved bond [4]: Nle15-Aib16, minor
- cleaved bond (neprilysin (rhNEP)): Nle15-Aib16, minor
Molecule: Lys-Phe-Arg-Arg-Gln-Arg-Pro-Arg-D-Leu-Ser-His-Lys-Gly-Pro-Nle-Aib-paraBrPhe

- fragment found [5]: 1-3 and 4-17
- cleaved bond [6]: Arg3-Arg4, <30 min
Molecule: Lys-Phe-Arg-Arg-Gln-Arg-Pro-Arg-Leu-Ser-His-Lys-Gly-Pro-Nle-Aib-paraBrPhe

- cleaved bond [4]: Nle15-Aib16, minor
- not cleaved [5]: 94 ± 3 % apelin at 60 min
Molecule: Lys-Phe-Arg-Arg-Gln-Arg-Pro-azaArg-Leu-Ser-His-Lys-Gly-Pro-Nle-Aib-paraBrPhe

- cleaved bond [4]: Nle11-Aib12, minor
- cleaved bond (neprilysin (rhNEP)): Nle11-Aib12, minor
Molecule: pGlu-Arg-Pro-Arg-D-Leu-Ser-His-Lys-Gly-Pro-Nle-Aib-paraBrPhe

The remaining lines, values behind:

Molecule: CCCC[C@H](NC(=O)[C@@H]1CCCN1C(=O)CNC(=O)[C@H](CCCCN)NC(=O)[C@H](Cc1cnc[nH]1)NC(=O)[C@H](CO)NC(=O)[C@H](CC(C)C)NC(=O)[C@H](CCCNC(=N)N)NC(=O)[C@@H]1CCCN1C(=O)[C@H](CCCNC(=N)N)NC(=O)[C@H](CCC(N)=O)NC(=O)[C@H](CCCNC(=N)N)NC(=O)[C@H](CCCNC(=N)N)NC(=O)[C@H](Cc1ccccc1)NC(=O)[C@H](CCCCN)NC(=O)CCOCCOCCOCCOCCOCCOCCNC(=O)OCC1c2ccccc2-c2ccccc21)C(=O)NC(C)(C)C(=O)N[C@@H](Cc1ccc(Br)cc1)C(=O)O [Peptide 57] ({Fmoc-PEG6}-KFRRQRPRLSHKGP[Nle][Aib][Phe(4-Br)]-OH)
- half-life (KLKB1 [1]): 1.4 h
- Degradation Onset Timepoint with KLKB1 [2]: 1 h
- Degradation Onset Timepoint with NEP [3]: 12 h
- half-life (neprilysin (NEP)): > 30 h

Molecule: CCCC[C@H](NC(=O)[C@@H]1CCCN1C(=O)CNC(=O)[C@H](CCCCN)NC(=O)[C@H](Cc1cnc[nH]1)NC(=O)[C@H](CO)NC(=O)[C@H](CC(C)C)N(C)C(=O)[C@H](CCCNC(=N)N)NC(=O)[C@@H]1CCCN1C(=O)[C@H](CCCNC(=N)N)NC(=O)[C@H](CCC(N)=O)NC(=O)[C@H](CCCNC(=N)N)NC(=O)[C@H](CCCNC(=N)N)NC(=O)[C@H](Cc1ccccc1)NC(=O)[C@H](CCCCN)NC(=O)CCOCCOCCOCCOCCOCCOCCNC(=O)OCC1c2ccccc2-c2ccccc21)C(=O)NC(C)(C)C(=O)N[C@@H](Cc1ccc(Br)cc1)C(=O)O [Peptide 59] ({Fmoc-PEG6}-KFRRQRPR[NMeL]SHKGP[Nle][Aib][Phe(4-Br)]-OH)
- half-life (KLKB1 [1]): 2.9 h
- Degradation Onset Timepoint with KLKB1 [2]: 2 h
- Degradation Onset Timepoint with NEP [3]: >36 h
- half-life (neprilysin (NEP)): > 30 h

B1: Kininogen: KLKB1 substrate, kinetic data from Gozzo et al. (protein, UniProt P01042 19-644, looked up)
Kininogen-1: QESQSEEIDCNDKDLFKAVDAALKKYNSQNQSNNQFVLYRITEATKTVGSDTFYSFKYEIKEGDCPVQSGKTWQDCEYKDAAKAATGECTATVGKRSSTKFSVATQTCQITPAEGPVVTAQYDCLGCVHPISTQSPDLEPILRHGIQYFNNNTQHSSLFMLNEVKRAQRQVVAGLNFRITYSIVQTNCSKENFLFLTPDCKSLWNGDTGECTDNAYIDIQLRIASFSQNCDIYPGKDFVQPPTKICVGCPRDIPTNSPELEETLTHTITKLNAENNATFYFKIDNVKKARVQVVAGKKYFIDFVARETTCSKESNEELTESCETKKLGQSLDCNAEVYVVPWEKKIYPTVNCQPLGMISLMKRPPGFSPFRSSRIGEIKEETTVSPPHTSMAPAQDEERDSGKEQGHTRRHDWGHEKQRKHNLGHGHKHERDQGHGHQRGHGLGHGHEQQHGLGHGHKFKLDDDLEHQGGHVLDHGHKHKHGHGHGKHKNKGKKNGKHNGWKTEHLASSSEDSTTPSAQTQEKTEGPTPIPSLAKPGVTVTFSDFQDSDLIATMMPPISPAPIQSDDDWIPDIQIDPNGLSFNPISDFPDTTSPKCPGRPWKSVSEINPTTQMKESYYFDLTDGLS
- Km (KLKB1 [7]): 0.75 µM
- kcat (KLKB1 [7]): 0.031 s⁻¹
